Laboratory results as given in ChEMBL document CHEMBL1201862, “PubChem BioAssay data set” (2004).
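Briefly, cells in 96-well plates were exposed to five compound concentrations for 48 h, and endpoints were estimated by linear interpolation. At the GI50, growth is halved.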 Activity calls are given as the source filed them. Cut-off read from the data, not from the text of the source: active = GI50 up to about 1.1 µM and inactive = higher.

What was measured:
Experiment in all cases: NCI anticancer screen, dose series, 48 h
786-0 = test system: 786-0
KM12 = test system: KM12
COLO 205 = test system: COLO 205
SF-539 = test system: SF-539
UACC-62 = test system: UACC-62
NCI-H226 = test system: NCI-H226
IGROV-1 = test system: IGROV-1
DU-145 = test system: DU-145
CCRF-CEM = test system: CCRF-CEM
HT-29 = test system: HT-29
PC-3 = test system: PC-3
CAKI-1 = test system: CAKI-1
HCT-15 = test system: HCT-15
SK-OV-3 = test system: SK-OV-3
SR = test system: SR
T47D = test system: T47D
MDA-MB-435 = test system: MDA-MB-435
Malme-3M = test system: Malme-3M
SK-MEL-28 = test system: SK-MEL-28
HOP-92 = test system: HOP-92
MDA-N = test system: MDA-N
MOLT-4 = test system: MOLT-4
U-251 = test system: U-251
SW-620 = test system: SW-620
RPMI-8226 = test system: RPMI-8226
NCI-H23 = test system: NCI-H23
SK-MEL-2 = test system: SK-MEL-2
SF-295 = test system: SF-295
M14 = test system: M14
MCF7 = test system: MCF7
A498 = test system: A498
UACC-257 = test system: UACC-257
MDA-MB-231 = test system: MDA-MB-231
K562 = test system: K562
UO-31 = test system: UO-31
BT-549 = test system: BT-549
EKVX = test system: EKVX
OVCAR-5 = test system: OVCAR-5
OVCAR-8 = test system: OVCAR-8
SNB-75 = test system: SNB-75
LOX IMVI = test system: LOX IMVI
A549 = test system: A549
HOP-62 = test system: HOP-62
Hs-578T = test system: Hs-578T
ACHN = test system: ACHN
SNB-19 = test system: SNB-19
NCI-H460 = test system: NCI-H460
HCT-116 = test system: HCT-116
OVCAR-3 = test system: OVCAR-3
HCC 2998 = test system: HCC 2998
OVCAR-4 = test system: OVCAR-4
TK-10 = test system: TK-10
HL-60 = test system: HL-60
NCI/ADR-RES = test system: NCI/ADR-RES
SK-MEL-5 = test system: SK-MEL-5
SN12C = test system: SN12C
NCI-H522 = test system: NCI-H522
SF-268 = test system: SF-268
RXF 393 = test system: RXF 393

## N#C[C@@]12CCCC(=O)[C@@H]1[C@H]1CCC[C@H]12
786-0
  GI50: 14.7 µM (inactive)
KM12
  GI50: 13.3 µM (inactive)
COLO 205
  GI50: 20 µM (inactive)
SF-539
  GI50: 23.7 µM (inactive)
UACC-62
  GI50: 22.6 µM (inactive)
NCI-H226
  GI50: 20.7 µM (inactive)
IGROV-1
  GI50: 16.5 µM (inactive)
DU-145
  GI50: 14.9 µM (inactive)
CCRF-CEM
  GI50: 16.6 µM (inactive)
HT-29
  GI50: 19.7 µM (inactive)
PC-3
  GI50: 13.9 µM (inactive)
CAKI-1
  GI50: 16.3 µM (inactive)
HCT-15
  GI50: 16.3 µM
SK-OV-3
  GI50: 14.7 µM (inactive)
SR
  GI50: 26.1 µM (inactive)
T47D
  GI50: 20.9 µM (inactive)
MDA-MB-435
  GI50: 17.1 µM (inactive)
Malme-3M
  GI50: 13.6 µM (inactive)
SK-MEL-28
  GI50: 17.7 µM (inactive)
HOP-92
  GI50: 11.5 µM (inactive)
MDA-N
  GI50: 18.8 µM (inactive)
MOLT-4
  GI50: 21.2 µM (inactive)
U-251
  GI50: 17.2 µM (inactive)
SW-620
  GI50: 20.6 µM (inactive)
RPMI-8226
  GI50: 11 µM (inactive)
NCI-H23
  GI50: 16.1 µM (inactive)
SK-MEL-2
  GI50: 16.9 µM (inactive)
SF-295
  GI50: 24.7 µM (inactive)
M14
  GI50: 12.9 µM (inactive)
MCF7
  GI50: 16.4 µM (inactive)
A498
  GI50: 17.1 µM (inactive)
UACC-257
  GI50: 20.2 µM (inactive)
MDA-MB-231
  GI50: 14.6 µM (inactive)
K562
  GI50: 17.7 µM (inactive)
UO-31
  GI50: 16.1 µM (inactive)
BT-549
  GI50: 17.9 µM (inactive)
EKVX
  GI50: 13.2 µM (inactive)
OVCAR-5
  GI50: 9.46 µM (inactive)
OVCAR-8
  GI50: 21.6 µM (inactive)
SNB-75
  GI50: 13.7 µM (inactive)
LOX IMVI
  GI50: 14.4 µM (inactive)
A549
  GI50: 16.7 µM (inactive)
HOP-62
  GI50: 15.2 µM (inactive)
Hs-578T
  GI50: 31.3 µM (inactive)
ACHN
  GI50: 17.7 µM (inactive)
SNB-19
  GI50: 21.7 µM (inactive)
NCI-H460
  GI50: 16.6 µM (inactive)
HCT-116
  GI50: 15.5 µM (inactive)
OVCAR-3
  GI50: 10.3 µM (inactive)
HCC 2998
  GI50: 15.1 µM (inactive)
OVCAR-4
  GI50: 21.3 µM (inactive)
TK-10
  GI50: 19.9 µM (inactive)
HL-60
  GI50: 8.22 µM (inactive)
NCI/ADR-RES
  GI50: 22.5 µM (inactive)
SK-MEL-5
  GI50: 15.8 µM (inactive)
SN12C
  GI50: 16.4 µM (inactive)

## C=C1[C@H](OC(=O)C(C)C)[C@@H](OC(C)=O)[C@@H](OC(C)=O)C(C)(C)[C@@H]2O[C@H]2[C@@H](C)C(=O)[C@@]2(OC(C)=O)C[C@@](C)(OC(C)=O)[C@H](OC(C)=O)[C@@H]2[C@H]1OC(C)=O
786-0
  GI50: > 100 µM (inactive)
KM12
  GI50: > 100 µM (inactive)
COLO 205
  GI50: > 100 µM (inactive)
SF-539
  GI50: > 100 µM (inactive)
UACC-62
  GI50: > 100 µM (inactive)
NCI-H226
  GI50: > 100 µM (inactive)
IGROV-1
  GI50: > 100 µM (inactive)
DU-145
  GI50: > 100 µM (inactive)
CCRF-CEM
  GI50: > 100 µM (inactive)
NCI-H522
  GI50: > 100 µM (inactive)
HT-29
  GI50: > 100 µM (inactive)
PC-3
  GI50: > 100 µM (inactive)
CAKI-1
  GI50: > 100 µM (inactive)
HCT-15
  GI50: > 100 µM
SK-OV-3
  GI50: > 100 µM (inactive)
SR
  GI50: > 100 µM (inactive)
T47D
  GI50: > 100 µM (inactive)
MDA-MB-435
  GI50: > 100 µM (inactive)
Malme-3M
  GI50: > 100 µM (inactive)
SF-268
  GI50: > 100 µM (inactive)
HOP-92
  GI50: > 100 µM (inactive)
MDA-N
  GI50: > 100 µM (inactive)
MOLT-4
  GI50: > 100 µM (inactive)
U-251
  GI50: > 100 µM (inactive)
SW-620
  GI50: > 100 µM (inactive)
RPMI-8226
  GI50: > 100 µM (inactive)
NCI-H23
  GI50: > 100 µM (inactive)
SK-MEL-2
  GI50: > 100 µM (inactive)
SF-295
  GI50: > 100 µM (inactive)
M14
  GI50: > 100 µM (inactive)
MCF7
  GI50: > 100 µM (inactive)
A498
  GI50: > 100 µM (inactive)
UACC-257
  GI50: > 100 µM (inactive)
MDA-MB-231
  GI50: > 100 µM (inactive)
K562
  GI50: > 100 µM (inactive)
UO-31
  GI50: 61.9 µM (inactive)
BT-549
  GI50: > 100 µM (inactive)
EKVX
  GI50: > 100 µM (inactive)
OVCAR-5
  GI50: > 100 µM (inactive)
OVCAR-8
  GI50: > 100 µM (inactive)
SNB-75
  GI50: 0.69 µM (active)
LOX IMVI
  GI50: > 100 µM (inactive)
A549
  GI50: > 100 µM (inactive)
HOP-62
  GI50: > 100 µM (inactive)
Hs-578T
  GI50: > 100 µM (inactive)
ACHN
  GI50: > 100 µM (inactive)
SNB-19
  GI50: > 100 µM (inactive)
NCI-H460
  GI50: > 100 µM (inactive)
HCT-116
  GI50: > 100 µM (inactive)
OVCAR-3
  GI50: > 100 µM (inactive)
HCC 2998
  GI50: > 100 µM (inactive)
OVCAR-4
  GI50: > 100 µM (inactive)
TK-10
  GI50: > 100 µM (inactive)
HL-60
  GI50: > 100 µM (inactive)
NCI/ADR-RES
  GI50: > 100 µM (inactive)
SK-MEL-5
  GI50: > 100 µM (inactive)
SN12C
  GI50: > 100 µM (inactive)

## N#Cc1c(N2CCN(c3ccc([N+](=O)[O-])cc3)CC2)[n+]([O-])c2ccc(Cl)cc2[n+]1[O-]
786-0
  GI50: 0.718 µM (active)
KM12
  GI50: 1.7 µM (inactive)
COLO 205
  GI50: 3.24 µM (inactive)
SF-539
  GI50: 1.15 µM (inactive)
UACC-62
  GI50: 1.18 µM (inactive)
NCI-H226
  GI50: 2.29 µM (inactive)
IGROV-1
  GI50: 0.318 µM (active)
DU-145
  GI50: 2.16 µM (inactive)
CCRF-CEM
  GI50: 0.29 µM (active)
NCI-H522
  GI50: 0.721 µM (active)
HT-29
  GI50: 1.31 µM (inactive)
PC-3
  GI50: 0.836 µM (active)
CAKI-1
  GI50: 0.489 µM (active)
HCT-15
  GI50: 0.627 µM
SK-OV-3
  GI50: 1.78 µM (inactive)
SR
  GI50: 0.016 µM (active)
T47D
  GI50: 0.716 µM (active)
MDA-MB-435
  GI50: 1.8 µM (inactive)
Malme-3M
  GI50: 2 µM (inactive)
SK-MEL-28
  GI50: 4.52 µM (inactive)
SF-268
  GI50: 1.86 µM (inactive)
HOP-92
  GI50: 0.161 µM (active)
MDA-N
  GI50: 1.75 µM (inactive)
MOLT-4
  GI50: 1.18 µM (inactive)
U-251
  GI50: 0.738 µM (active)
SW-620
  GI50: 0.646 µM (active)
RPMI-8226
  GI50: 0.705 µM (active)
NCI-H23
  GI50: 1.71 µM (inactive)
SK-MEL-2
  GI50: 2.2 µM (inactive)
SF-295
  GI50: 1.91 µM (inactive)
M14
  GI50: 1.56 µM (inactive)
MCF7
  GI50: 0.973 µM (active)
A498
  GI50: 0.575 µM (active)
UACC-257
  GI50: 2.65 µM (inactive)
MDA-MB-231
  GI50: 1.04 µM (active)
K562
  GI50: 0.231 µM (active)
UO-31
  GI50: 1.43 µM (inactive)
BT-549
  GI50: 0.264 µM (active)
EKVX
  GI50: 1.71 µM (inactive)
OVCAR-5
  GI50: 3.4 µM (inactive)
OVCAR-8
  GI50: 1.11 µM (active)
SNB-75
  GI50: 2.36 µM (inactive)
LOX IMVI
  GI50: 0.459 µM (active)
A549
  GI50: 2.02 µM (inactive)
HOP-62
  GI50: 0.521 µM (active)
Hs-578T
  GI50: 2.11 µM (inactive)
ACHN
  GI50: 0.789 µM (active)
SNB-19
  GI50: 2.81 µM (inactive)
NCI-H460
  GI50: 0.0644 µM (active)
HCT-116
  GI50: 0.427 µM (active)
OVCAR-3
  GI50: 0.745 µM (active)
HCC 2998
  GI50: 0.944 µM (active)
OVCAR-4
  GI50: 1.18 µM (inactive)
TK-10
  GI50: 2.54 µM (inactive)
NCI/ADR-RES
  GI50: 1.07 µM (active)
SK-MEL-5
  GI50: 6.38 µM (inactive)
RXF 393
  GI50: 1.79 µM (inactive)
SN12C
  GI50: 0.966 µM (active)
